{"source": "patent US9388155B1", "about": "“Coumarin derivatives for cancer therapy” (Wellesley College, priority 2013, dated 2016)", "origin": "cited, not measured here", "tested_on": "pancreatic cancer cell line PANC-1", "settings": "PANC-1, nutrient starvation conditions, within 24 hours"}
{"smiles": "CC(C)(OC(=O)C=Cc1ccc(O)cc1)C1Cc2c(ccc3ccc(=O)oc23)O1", "note": "(stereo not shown) [Angelmarin, 11-O-(p-hydroxy-cinnamoyl) columbianetin]", "values": [{"measurement": "cytotoxicity", "value": 0.01, "unit": "µg/mL"}]}
